The values that follow come from patent publication US20250188079A1, “INHIBITING CYCLIC AMP-RESPONSIVE ELEMENT-BINDING PROTEIN (CREB)” (Forma Therapeutics, Inc., priority 2019, published 2025).

The target in this experiment is CBP (Homo sapiens (Human), UniProt Q92793). In words: HTRF biochemical assay for CBP activity (TR-FRET, bromodomain). The following applies: geometric mean, 10-point 3-fold dilution 33 μM to 1.7 nM, read-out: BROMO IC50 TRF TB CBP (μM gmean). The class given is binding. Put shortly: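 Compounds were tested as 10-point, 3-fold dilutions (33 μM to 1.7 nM final) against CBP protein and peptide ligand in pH 7.5 Hepes buffer with GSH, BGG, BSA and Triton X-100 at room temperature for varying times. The TR-FRET 520/490 ratio gave % inhibition versus no-enzyme and DMSO controls, and IC50 came from 4-parameter logistic fits.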
CBP, sequence (Q92793 1085-1192): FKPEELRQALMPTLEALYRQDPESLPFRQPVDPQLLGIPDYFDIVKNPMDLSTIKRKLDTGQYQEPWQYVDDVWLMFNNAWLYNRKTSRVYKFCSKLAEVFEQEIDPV
Background: Time-resolved FRET reads energy transfer from a long-lived donor to a nearby acceptor.
As a reminder, the IC50 is the concentration needed to halve the response being measured. In the case of `COC(=O)N1Cc2c(ccc3c2nc(C2CCCCC2)n3Cc2ccccc2)CC1C` (centres unmarked) [Compound 328], the concentration for half-maximal inhibition (IC50) is 0.1 to 1 µM.

In the case of `COC(=O)N1CCc2ccc3c(nc([C@@H]4CC[C@H](C(=O)O)C4)n3[C@H](C)Cc3ccccc3C)c2C1` [Compound 329], the IC50 fell in the range of 0.1 to 1 µM.

As to `COC(=O)N1CCc2ccc3c(nc(C4CCN(S(N)(=O)=O)CC4)n3[C@H](C)Cc3ccccc3)c2C1` [Compound 330], the IC50 fell in the range of 0.1 to 1 µM.

Consider `COC(=O)N1CCc2ccc3c(nc(C4CCN(S(C)(=O)=O)CC4)n3[C@H](C)Cc3cccc(C(=O)O)c3)c2C1` [Compound 331], for which the IC50 lay within 0.1 to 1 µM.

`COC(=O)N1CCc2ccc3c(nc([C@H]4CC[C@H](C(=O)O)CC4)n3[C@H](C)Cc3ccc4c(c3)CCO4)c2C1` [Compound 332]: the half-maximal inhibitory concentration (IC50) lay in the range of 0.1 to 1 µM.

As for `COC(=O)N1CCc2ccc3c(nc([C@H]4CC[C@](C)(C(=O)O)CC4)n3[C@H](C)Cc3ccccc3)c2C1` [Compound 333], the IC50 is 0.1 to 1 µM.

For the compound `COC(=O)N1CCc2ccc3c(nc([C@H]4CC[C@H](C(=O)O)CC4)n3[C@H](C)Cc3cccc(C)c3)c2C1` [Compound 334], the half-inhibitory concentration (IC50) fell in the range of 0.1 to 1 µM.

In the case of `COC(=O)N1CCc2ccc3c(nc([C@H]4CC[C@H](C(=O)O)CC4)n3[C@@H]3CCc4ccccc4C3)c2C1` [Compound 335], the half-inhibitory concentration (IC50) lay within 0.1 to 1 µM.

On to `COC(=O)N1CCc2ccc3c(nc([C@H]4CC[C@@H](C(=O)O)CC4)n3CCc3ccccc3)c2C1` [Compound 336], for which the IC50 was 0.1 to 1 µM.

Regarding `COC(=O)N1CCc2ccc3c(nc(N4CCN(C(=O)C5COC5)CC4)n3[C@@H](C)Cc3ccccc3)c2C1` [Compound 337], the IC50 is 0.1 to 1 µM.

In the case of `COC(=O)N1CCc2ccc3c(nc([C@H]4CC[C@H](C(=O)O)CC4)n3[C@@H](C)C(F)(F)c3ccccc3)c2C1` [Compound 338], the half-maximal inhibitory concentration (IC50) was in the range of 0.1 to 1 µM.

As to `COC(=O)N1CCc2ccc3c(nc(N4CCC[C@H](C(=O)O)C4)n3[C@H](C)Cc3ccccc3)c2C1` [Compound 339], the concentration for half-maximal inhibition (IC50) fell in the range of 0.1 to 1 µM.

For `COC(=O)N1CCc2ccc3c(nc([C@H]4C[C@@H](C(=O)O)C4)n3[C@H](C)Cc3ccccc3C)c2C1` [Compound 340], the IC50 was 0.1 to 1 µM.

On to `COC(=O)N1CCc2ccc3c(nc([C@H]4CC[C@@](C)(C(=O)O)CC4)n3[C@@H](CO)Cc3ccccc3)c2C1` [Compound 341], for which the half-maximal inhibitory concentration (IC50) is 0.1 to 1 µM.

As to `COC(=O)N1CCc2ccc3c(nc(C4CS(=O)(=O)C4)n3CCc3ccccc3)c2C1` [Compound 342], the IC50 lay in the range of 0.1 to 1 µM.

For `COC(=O)N1CCc2ccc3c(nc(N4CCN(S(C)(=O)=O)CC4)n3[C@H](C)Cn3cc(Cl)cn3)c2C1` [Compound 343], the IC50 was in the range of 0.1 to 1 µM.

As to `COC(=O)N1CCc2ccc3c(nc([C@H]4CCC[C@H](C(=O)O)C4)n3[C@H](C)Cc3ccccc3)c2C1` [Compound 344], the half-inhibitory concentration (IC50) was 0.1 to 1 µM.

Turning to `COC(=O)N1CCc2ccc3c(nc(C4CCNCC4)n3CCc3ccccc3)c2C1` [Compound 345], the IC50 was in the range of 0.1 to 1 µM.

As for `COC(=O)N1CCc2ccc3c(nc(C4CCN(C(C)=O)CC4)n3[C@H](C)Cc3cccnc3)c2C1` [Compound 346], the IC50 was in the range of 0.1 to 1 µM.

As to `COC(=O)N1CCc2ccc3c(nc(N4CCNCC4)n3[C@H](C)Cc3ccccc3)c2C1` [Compound 347], the half-inhibitory concentration (IC50) lay in the range of 1 to 1000 µM.

For the compound `COC(=O)N1CCc2ccc3c(nc(C4CCN(S(=O)(=O)NC(C)=O)CC4)n3[C@H](C)Cc3ccccc3)c2C1` [Compound 348], the IC50 was in the range of 1 to 1000 µM.

`COC(=O)N1CCc2ccc3c(nc([C@H]4CC[C@H](C(=O)O)CC4)n3CC(F)(F)c3ccccc3)c2C1` [compound 145]: the IC50 was in the range of 0.001 to 0.01 µM.

As to “(1R,3R)-3-[3-[(2R)-2-(3,4-difluorophenyl)propyl]-8-(methoxycarbonyl)-3H,6H,7H,8H,9H-imidazo[4,5-h]isoquinolin-2-yl]cyclohexane-1-carboxylic acid [Compound 28]”, the half-maximal inhibitory concentration (IC50) was in the range of 0.001 to 0.01 µM.

“(1S,3S)-3-[3-[(2R)-1-(3,4-difluorophenyl)propan-2-yl]-8-(methoxycarbonyl)-3H,6H,7H,8H,9H-imidazo[4,5-h]isoquinolin-2-yl]cyclohexane-1-carboxylic acid [Compound 31]”: the IC50 lay in the range of 0.001 to 0.01 µM.

As for “(1S,3S)-3-[3-[(2S)-1-(3,4-difluorophenyl)propan-2-yl]-8-(methoxycarbonyl)-3H,6H,7H,8H,9H-imidazo[4,5-h]isoquinolin-2-yl]cyclohexane-1-carboxylic acid [Compound 60]”, the concentration for half-maximal inhibition (IC50) was 0.001 to 0.01 µM.

Regarding “(1S,3S)-3-[3-[(2S)-2-(3,4-difluorophenyl)propyl]-8-(methoxycarbonyl)-3H,6H,7H,8H,9H-imidazo[4,5-h]isoquinolin-2-yl]cyclohexane-1-carboxylic acid [Compound 29]”, the concentration for half-maximal inhibition (IC50) lay within 0.001 to 0.01 µM.

As for “(2R)-3-[2-cyclohexyl-8-(methoxycarbonyl)-3H,6H,7H,8H,9H-imidazo[4,5-h]isoquinolin-3-yl]-2-(5-fluoro-2-methoxyphenyl)propanoic acid [Compound 241]”, the IC50 fell in the range of 0.01 to 0.1 µM.

Regarding “(3R)-4-[2-cyclohexyl-8-(methoxycarbonyl)-3H,6H,7H,8H,9H-imidazo[4,5-h]isoquinolin-3-yl]-3-(3-fluoro-5-methoxyphenyl)butanoic acid [Compound 194]”, the IC50 was 0.01 to 0.1 µM.

With “(3S)-4-[2-cyclohexyl-8-(methoxycarbonyl)-3H,6H,7H,8H,9H-imidazo[4,5-h]isoquinolin-3-yl]-3-(3-fluoro-5-methoxyphenyl)butanoic acid [Compound 10]”, the IC50 was in the range of 0.001 to 0.01 µM.
